Measurements published in the supplement of paper PMC10307832.

Assays:
Assay in all cases: relative viability (nuclei count vs DMSO), 5 days (fraction); higher = more cells survive
Dabrafenib + Foretinib = compound: CC(C)(C)c1nc(-c2cccc(NS(=O)(=O)c3c(F)cccc3F)c2F)c(-c2ccnc(N)n2)s1 [Dabrafenib] + COc1cc2c(Oc3ccc(NC(=O)C4(C(=O)Nc5ccc(F)cc5)CC4)cc3F)ccnc2cc1OCCCN1CCOCC1 [Foretinib] (partner 0.25 µM)
Method in brief: (§1)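 For relative viability, nuclei counts in treated wells were divided by those in vehicle wells. Lung cancer cell lines had been pin-tool dosed in 1536-well plates the day after seeding and cultured for 5 days, then fixed and stained in one step (final 0.05% Triton X-100, 1% formaldehyde, 1 ug/ml Hoechst) and imaged at 4×. Doses were one drug alone or a fixed anchor-drug dose plus five library-drug doses (not always all listed) in √10 steps, and values are duplicate-plate medians.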

VX-702 + Trametinib = compound: NC(=O)c1ccc(N(C(N)=O)c2c(F)cccc2F)nc1-c1ccc(F)cc1F [VX-702] + CC(=O)Nc1cccc(-n2c(=O)n(C3CC3)c(=O)c3c(Nc4ccc(I)cc4F)n(C)c(=O)c(C)c32)c1 [Trametinib] (partner 0.02 µM)
Method in brief: as §1

Dabrafenib + Vorinostat = compound: CC(C)(C)c1nc(-c2cccc(NS(=O)(=O)c3c(F)cccc3F)c2F)c(-c2ccnc(N)n2)s1 [Dabrafenib] + O=C(CCCCCCC(=O)Nc1ccccc1)NO [Vorinostat] (partner 1 µM)
Method in brief: as §1

VX-702 + Navitoclax = compound: NC(=O)c1ccc(N(C(N)=O)c2c(F)cccc2F)nc1-c1ccc(F)cc1F [VX-702] + CC1(C)CCC(c2ccc(Cl)cc2)=C(CN2CCN(c3ccc(C(=O)NS(=O)(=O)c4ccc(N[C@H](CCN5CCOCC5)CSc5ccccc5)c(S(=O)(=O)C(F)(F)F)c4)cc3)CC2)C1 [Navitoclax] (partner 0.5 µM)
Method in brief: as §1

| Cell Line | relative viability (Dabrafenib + Foretinib; first compound 0.003 µM) | relative viability (Dabrafenib + Foretinib; first compound 0.009487 µM) | relative viability (Dabrafenib + Foretinib; first compound 0.03 µM) | relative viability (Dabrafenib + Foretinib; first compound 0.09487 µM) | relative viability (Dabrafenib + Foretinib; first compound 0.3 µM) | relative viability (VX-702 + Trametinib; first compound 0.02 µM) | relative viability (VX-702 + Trametinib; first compound 0.2 µM) | relative viability (VX-702 + Trametinib; first compound 0.6325 µM) | relative viability (VX-702 + Trametinib; first compound 2 µM) | relative viability (Dabrafenib + Vorinostat; first compound 0.003 µM) | relative viability (Dabrafenib + Vorinostat; first compound 0.009487 µM) | relative viability (Dabrafenib + Vorinostat; first compound 0.03 µM) | relative viability (Dabrafenib + Vorinostat; first compound 0.09487 µM) | relative viability (Dabrafenib + Vorinostat; first compound 0.3 µM) | relative viability (VX-702 + Navitoclax; first compound 0.02 µM) | relative viability (VX-702 + Navitoclax; first compound 0.2 µM) | relative viability (VX-702 + Navitoclax; first compound 0.6325 µM) | relative viability (VX-702 + Navitoclax; first compound 2 µM) |
| --- | --- | --- | --- | --- | --- | --- | --- | --- | --- | --- | --- | --- | --- | --- | --- | --- | --- | --- |
| NCI-H520 | 0.909 | 0.78 | 0.455 | 0.74 | 0.661 | 0.712 | 0.799 | 0.589 | 0.649 | 0.82 | 0.753 | 0.63 | 0.823 | 0.74 | 1 | 0.985 | 0.953 | 1.1 |
| NCI-H1703 | 0.354 | 0.327 | 0.34 | 0.334 | 0.447 |  |  |  |  |  |  |  |  |  | 1.01 | 1.35 | 1.08 | 1.47 |
| Calu-6 | 0.878 | 0.964 | 0.84 | 0.84 | 0.654 |  |  |  |  |  |  |  |  |  | 0.927 | 0.811 | 1.01 | 1.01 |
| NCI-H1623 |  | 0.869 | 0.846 | 0.829 | 1.12 |  |  |  |  |  |  |  |  |  |  |  |  |  |
| LCLC-103H | 0.762 | 0.791 | 0.737 | 0.804 | 0.849 | 0.723 | 0.743 | 0.665 | 0.711 | 0.627 | 0.772 | 0.576 | 0.765 | 0.816 |  |  |  |  |
| NCI-H1792 |  |  |  |  |  | 0.425 | 0.394 | 0.397 | 0.482 |  |  |  |  |  | 0.718 | 0.621 | 0.695 | 0.753 |
| NCI-H522 |  |  |  |  |  | 0.736 | 0.759 | 0.708 | 0.74 |  | 1.06 | 0.864 | 0.815 | 0.93 |  |  |  |  |
| NCI-H1299 | 1.05 | 1.09 | 1.07 | 1.03 | 1.08 |  |  |  |  |  |  |  |  |  | 1.1 | 1.08 | 1.07 | 1.15 |
| IA-LM | 1.13 | 1.08 | 1.08 | 0.977 | 1.13 |  |  |  |  |  | 0.957 | 0.983 | 0.829 | 1.07 | 0.928 | 0.853 | 0.658 | 0.905 |
| NCI-H358 | 0.662 | 0.862 | 0.815 | 0.771 | 0.76 | 0.147 | 0.143 | 0.126 | 0.143 | 0.86 | 0.695 | 0.741 | 0.689 | 0.72 |  |  |  |  |
| EBC-1 | 0.102 | 0.0889 | 0.103 | 0.0949 | 0.108 |  |  |  |  |  |  |  |  |  | 0.441 | 0.413 | 0.337 | 0.389 |
| NCI-H1563 | 0.856 | 0.981 | 0.824 | 1.04 | 1.01 |  |  |  |  |  |  |  |  |  |  |  |  |  |
| NCI-H2342 | 1.04 | 1.18 | 0.954 | 1.09 | 1.2 | 0.686 | 1.01 | 0.871 | 0.835 | 0.551 | 0.702 | 0.664 | 0.696 | 0.721 |  |  |  |  |
| NCI-H661 | 1.01 | 0.983 | 0.97 | 1.01 | 1.01 | 0.682 | 0.599 | 0.637 | 0.71 | 0.889 | 0.778 | 0.804 | 0.767 | 0.842 |  |  |  |  |
| A549 | 0.979 | 0.988 | 0.911 | 0.988 | 0.975 |  |  |  |  |  |  |  |  |  | 1.25 | 1.23 | 1.28 | 1.42 |
